Consider 6 molecules from US20050112742A1, “High temperature and alkaline stable catalase” (priority 2003, published 2005).

Data set [1] deals with T1, Thermus brockianus catalase (SEQ ID NO:2, SEQ ID NO:5) (Thermus brockianus, UniProt A0ABM7XHT8).
T1 construct: in solution and immobilized on Eupergit C
T1 sequence (A0ABM7XHT8 6-291): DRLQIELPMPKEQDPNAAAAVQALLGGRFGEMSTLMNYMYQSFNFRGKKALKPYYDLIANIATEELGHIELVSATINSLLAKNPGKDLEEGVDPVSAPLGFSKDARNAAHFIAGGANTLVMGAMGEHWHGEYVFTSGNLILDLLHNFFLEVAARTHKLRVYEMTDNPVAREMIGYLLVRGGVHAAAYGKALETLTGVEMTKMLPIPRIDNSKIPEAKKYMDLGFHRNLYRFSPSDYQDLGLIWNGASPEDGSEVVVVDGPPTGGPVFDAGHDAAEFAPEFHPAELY
Nature of the data set: Peroxidase activity with peroxidase substrates. It counts as biochemical. The settings on record: hydrogen peroxide 1 mM, 20 mM Tris pH 8.0, 70° C. How it is done:
The reactions were monitored spectrophotometrically at 460 and 420 nm, respectively. The substrates were dissolved in 20 mM Tris buffer, pH 8.0, and the assays were conducted at 70° C.

Data set [2] concerns Archaeoglobus fulgidus recombinant catalase-peroxidase (putative perA gene). The note with it: in words; cited from earlier work.
For a further data set, the system named is T. brockianus catalase. It counts as biochemical, Thermus brockianus.
In data set [3] the test system is Thermoascus aurantiacus catalase. The settings on record: cited from earlier work.
Data set [4] deals with N. crassa catalase or catalase-peroxidase. The note with it: cited from earlier work.
Data set [5] has as its system R. capsulatus catalase or catalase-peroxidase. The note with it: Table 3; cited from earlier work.
The test system of data set [6] is Thermoleophilum album catalase. The note with it: cited from earlier work.
In data set [7] the test system is E. coli catalase or catalase-peroxidase. The note with it: Table 3; cited from earlier work.
Data set [8] has as its system A. nidulans catalase or catalase-peroxidase. The settings on record: cited from earlier work.
Data set [9] addresses T1, Thermus brockianus catalase (SEQ ID NO:2, SEQ ID NO:5). Put plainly: Michaelis-Menten kinetics of hydrogen peroxide decomposition (240 nm). It counts as biochemical. The note with it: for Vmax: 20 mM Tris pH 8, 70° C. How it is done: The buffer pH was adjusted to 8 at 70° C.
The constants were calculated by fitting the Michaelis-Menten equation to a plot of reaction velocity versus substrate concentration using nonlinear analysis (using GraFit Version 4, Erithacus Software Limited, Horley Surrey, U.K.). […] The enzyme was assayed as in Example I, except that it was preincubated with the inhibitor for 5 min prior to assay.
The turnover number was calculated assuming four active centers per catalase molecule.

The test system of data set [10] is Bacillus sp. catalase or catalase-peroxidase. The settings on record: cited from earlier work.
Data set [11] relates to Vitreoscilla sp. catalase or catalase-peroxidase. The note with it: Table 3; cited from earlier work.
The next data set concerns the target Beef liver catalase (Bos taurus, UniProt P00432). The note with it: Non-Immobilized Enzyme; inhibition observed at substrate concentrations above.
Data set [12] has as its system M. tuberculosis catalase or catalase-peroxidase. The settings on record: cited from earlier work.
Data set [13] is described as follows: Stability of immobilized catalase. It counts as physicochemical. The note with it: 70° C. Here is the method: For beef liver catalase, the stability at 70° C. and pH 10 increased from no stability to being stable for 5 minutes. The A. niger catalase was stable for at least 6 hours under these conditions. The stability of immobilized T. brockianus catalase is assayed as done with immobilized beef liver catalase.

Substrate in data set [14]: OO
Put plainly: purified protein, by the assay type.

[15] abbreviates: H2O2 concentration showing substrate inhibition.

Entries after “also recorded” stand apart in the source; their conditions may differ.

Chain of Beef liver catalase (P00432 whole entry): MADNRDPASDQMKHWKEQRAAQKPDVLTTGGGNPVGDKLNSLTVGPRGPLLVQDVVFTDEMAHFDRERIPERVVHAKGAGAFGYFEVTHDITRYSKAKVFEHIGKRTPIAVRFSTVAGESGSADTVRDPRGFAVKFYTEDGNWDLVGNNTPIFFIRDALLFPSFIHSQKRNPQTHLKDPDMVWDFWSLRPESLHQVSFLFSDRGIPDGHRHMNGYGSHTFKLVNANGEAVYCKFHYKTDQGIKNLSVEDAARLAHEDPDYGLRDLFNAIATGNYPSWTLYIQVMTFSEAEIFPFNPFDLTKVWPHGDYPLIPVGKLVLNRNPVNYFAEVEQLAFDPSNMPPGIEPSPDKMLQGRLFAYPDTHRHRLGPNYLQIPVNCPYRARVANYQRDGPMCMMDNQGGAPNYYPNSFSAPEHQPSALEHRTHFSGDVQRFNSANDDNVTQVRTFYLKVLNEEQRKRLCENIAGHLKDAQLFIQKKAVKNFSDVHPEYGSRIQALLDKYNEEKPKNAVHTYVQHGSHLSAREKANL

For `CCn1c(=NN=c2sc3cc(S(=O)(=O)O)ccc3n2CC)sc2cc(S(=O)(=O)O)ccc21` [2,2′-azino-bis(3-ethylbenzothiazoline-6-sulfonic acid)], the peroxidase activity result in [1] (substrate 10 mM, 420 nm) is given as “absence of peroxidase activity”.

With `Nc1nc[nH]n1` [3-amino-1,2,4-triazole], the “inhibition by 3-amino-1,2,4-triazole” value in data set [2] was “inhibited”. Also, in the data set on T. brockianus catalase, the “inhibition of T. brockianus catalase” value is listed as “completely inhibited” and the “inhibition of T. brockianus catalase (in words, no concentration given)” value is “inhibition”.

For the molecule `OO` [hydrogen peroxide], the “H2O2 Inhibition” value in data set [3] (setting [15]) is 60 mM; in data set [4] (no inhibition observed for H2O2 concentrations up to 200 mM), “None^b”; in data set [6] (setting [15]), 20 mM; in data set [8] (setting [15]) it was 10 mM; in data set [9] (no inhibition observed for H2O2 concentrations up to 450 mM, pH 8, 70° C.), “no apparent substrate inhibition/inactivation; also recorded: not inhibited; also recorded: None^c”; in data set [10] (setting [15]) it was 30 mM. Besides, the Kcat in [3] (Table 3) is 107000 s⁻¹; in data set [7], 16300 s⁻¹; in data set [8] (Table 3), 7170 s⁻¹; in data set [11], 26700 s⁻¹; in data set [12] it was 10100 s⁻¹. The Km was 48 mM in data set [3] (Table 3); 25 mM in data set [4] (Table 3); 4.2 mM in data set [5]; 15 mM in data set [6] (Table 3); 3.9 mM in [7]; 4.3 mM in data set [8] (Table 3). For the same molecule, the Km was 6.8 mM in data set [10] (Table 3), 16 mM in [11] and 5.2 mM in data set [12] (Table 3). The Vmax in data set [6] (Table 3) was 2.3 mM/min/mg; in data set [9] (hydrogen peroxide 3 to 450 mM) it was 20.3 mM/min·mg protein; in data set [9] (Table 3) it was 20.3 mM/min/mg. The “turnover number (kcat)” value in data set [9] (calculated assuming four active centers per catalase molecule, pH 8, 70° C.) is 6000 s⁻¹. In addition, the “substrate inhibition concentration (footnote b)” value at Beef liver catalase is “^bApproximated value - inhibition observed at substrate concentrations above 100 mM”.

For the molecule `COc1cc(-c2ccc(N)c(OC)c2)ccc1N` [o-dianisidine], the peroxidase activity entry in [1] (substrate 0.5 mM, 460 nm) is on record as “absence of peroxidase activity”.

B1: Beef Liver: beef liver catalase, commercial comparison enzyme (protein, UniProt P00432 2-527, looked up)
Catalase: ADNRDPASDQMKHWKEQRAAQKPDVLTTGGGNPVGDKLNSLTVGPRGPLLVQDVVFTDEMAHFDRERIPERVVHAKGAGAFGYFEVTHDITRYSKAKVFEHIGKRTPIAVRFSTVAGESGSADTVRDPRGFAVKFYTEDGNWDLVGNNTPIFFIRDALLFPSFIHSQKRNPQTHLKDPDMVWDFWSLRPESLHQVSFLFSDRGIPDGHRHMNGYGSHTFKLVNANGEAVYCKFHYKTDQGIKNLSVEDAARLAHEDPDYGLRDLFNAIATGNYPSWTLYIQVMTFSEAEIFPFNPFDLTKVWPHGDYPLIPVGKLVLNRNPVNYFAEVEQLAFDPSNMPPGIEPSPDKMLQGRLFAYPDTHRHRLGPNYLQIPVNCPYRARVANYQRDGPMCMMDNQGGAPNYYPNSFSAPEHQPSALEHRTHFSGDVQRFNSANDDNVTQVRTFYLKVLNEEQRKRLCENIAGHLKDAQLFIQKKAVKNFSDVHPEYGSRIQALLDKYNEEKPKNAVHTYVQHGSHLSAREKANL
Take B1: the “stability, not immobilized” value in data set [13] (pH 10, before immobilization) is on record as “no stability”. The “time stable, immobilized enzyme” value in [13] (pH 10, immobilized) worked out at 5 min.

B2: Thermus brockianus catalase (SEQ ID NO:2, SEQ ID NO:5) (Thermus brockianus) (protein)
chain: DRLQIELPMPKEQDPNAAAAVQALLGGRFGEMSTLMNYMYQSFNFRGKKALKPYYDLIANIATEELGHIELVSATINSLLAKNPGKDLEEGVDPVSAPLGFSKDARNAAHFIAGGANTLVMGAMGEHWHGEYVFTSGNLILDLLHNFFLEVAARTHKLRVYEMTDNPVAREMIGYLLVRGGVHAAAYGKALETLTGVEMTKMLPIPRIDNSKIPEAKKYMDLGFHRNLYRFSPSDYQDLGLIWNGASPEDGSEVVVVDGPPTGGPVFDAGHDAAEFAPEFHPAELY
In the case of B2, the Michaelis constant (Km) in [14] (other: 20 mM Tris pH 8, 70° C., hydrogen peroxide 3 to 450 mM, pH 8.0, 70.0 °C) was 35.5 mM; in data set [14] (other: Immobilized Enzyme, packed column, PBS pH 7.2, 20 mL/min, optimum temperature, pH 7.2) it was 17 mM; in data set [14] (other: Non-Immobilized Enzyme, optimum temperature and pH), 35 mM.
